Data on 3 compounds can be found in patent US4394375A, “Cephalosporin derivatives, and compositions containing them” (Beecham Group Limited, priority 1980, dated 1983).

In brackets after ≈: the same amount, converted by molar mass. Read-outs that look alike come from different tables or passages of the source.

What all share (type): cell-based
One experiment concerns E. coli ESS. The experiment in a line: MIC, E. coli ESS. To be noted: Escherichia coli.
A further experiment deals with E. coli JT 4. The experiment is described as follows: MIC, E. coli JT 4. The following applies: Escherichia coli, JT4.
Another experiment has as its system E. coli JT 425. The experiment is described as follows: MIC, E. coli JT 425. To be noted: Escherichia coli, JT425.
The next experiment relates to E. coli NCTC 10418. The experiment in a line: MIC, E. coli NCTC 10418. To be noted: Escherichia coli, NCTC10418.
In another experiment the test system is Ps aeruginosa NCTC 10662. The experiment in a line: MIC, Ps aeruginosa NCTC 10662.
The subject of the next experiment is Ps aeruginosa Dalgleish. The experiment in a line: MIC, Ps aeruginosa Dalgleish. To be noted: Ps aeruginosa Dalgleish 10^-2.
Another experiment concerns S. marcescens US 32. The experiment in a line: MIC, S. marcescens US 32. To be noted: Serratia marcescens, US32.
For a further experiment, the system named is K. aerogenes A. The experiment is described as follows: MIC, K. aerogenes A. The following applies: Klebsiella aerogenes.
The next experiment deals with E. cloacae Nl. The experiment in a line: MIC, E. cloacae Nl. To be noted: Enterobacter cloacae.
The test system of a further experiment is P. mirabilis C 977. The experiment is described as follows: MIC, P. mirabilis C 977. The following applies: Proteus mirabilis, C977.
In the next experiment the test system is P. mirabilis 889. The experiment is described as follows: MIC, P. mirabilis 889. To be noted: Proteus mirabilis.
For another experiment, the system named is P. morganii. The experiment is described as follows: MIC, P. morganii. To be noted: Morganella morganii.
A further experiment concerns P. rettgeri. The experiment is described as follows: MIC, P. rettgeri. The following applies: Providencia rettgeri.
A further experiment deals with B. subtilis. The experiment is described as follows: MIC, B. subtilis. To be noted: Bacillus subtilis.
Another experiment relates to S. aureus Oxford. The experiment is described as follows: MIC, S. aureus Oxford. The following applies: Staphylococcus aureus.
For a further experiment, the system named is S. aureus Russell. The experiment is described as follows: MIC, S. aureus Russell. To be noted: Staphylococcus aureus.
Another experiment relates to N. catarrhalis 1502. The experiment is described as follows: MIC, N. catarrhalis 1502.
The subject of the next experiment is S. faecalis I. The experiment in a line: MIC, S. faecalis I. To be noted: Enterococcus faecalis.
For another experiment, the system named is S. pyogenes CN 10. The experiment in a line: MIC, S. pyogenes CN 10. The following applies: Streptococcus pyogenes, CN10.
[1] abbreviates: Ps aeruginosa NCTC 10662, read-out: MIC.

Take `CCN1CCN(C(=O)N[C@@H](C(=O)N[C@]2(CO)C(=O)N3C(C(=O)O)=C(COC(C)=O)CS[C@@H]32)c2ccc(O)cc2)C(=O)C1=O` [Example 3b, Sodium 7β-[2-(4-ethyl-2,3-dioxopiperazine-1-carbonylamino)-2-(4-hydroxyphenyl)acetamido]-7α-hydroxymethylcephalosporanate]: the MIC in the experiment on E. coli ESS turned out to be 0.05 µg/mL; against E. coli JT 4 it was 2.5 µg/mL; with E. coli JT 425, 1 µg/mL; against E. coli NCTC 10418, 1 µg/mL; against Ps aeruginosa NCTC 10662 (Ps aeruginosa NCTC 10662 10^-2), 50 µg/mL; in the experiment on Ps aeruginosa NCTC 10662 (setting [1]), 50 µg/mL. The MIC stood at 25 µg/mL in the experiment on Ps aeruginosa Dalgleish; 5 µg/mL in the experiment on S. marcescens US 32; 0.25 µg/mL with K. aerogenes A; 10 µg/mL against E. cloacae Nl; 2.5 µg/mL with P. mirabilis C 977; 0.5 µg/mL against P. mirabilis 889. For the same compound, the MIC in the experiment on P. morganii was 10 µg/mL; in the experiment with P. rettgeri, 10 µg/mL; against B. subtilis it was over 100 µg/mL; against S. aureus Oxford, over 100 µg/mL; against S. aureus Russell it was over 100 µg/mL; in the experiment on N. catarrhalis 1502, 0.5 µg/mL. The MIC against S. faecalis I and against S. pyogenes CN 10 was over 100 µg/mL in each case.

Turning to `CCN1CCN(C(=O)N[C@@H](C(=O)N[C@]2(CO)C(=O)N3C(C(=O)O)=C(CSc4nnnn4C)CS[C@@H]32)c2ccccc2)C(=O)C1=O` [Example 4, 7β-[2(4-Ethyl-2,3-dioxopiperazine-1-carbonylamino)-2-phenylacetamido]-7α-hydroxymethyl-3-(1-methyl-1H-tetrazol-5-ylthio)methylceph-3-em-4-carboxylic acid], the minimum inhibitory concentration (MIC) with E. coli ESS was under 0.02 µg/mL; in the experiment with E. coli JT 4, 5 µg/mL (≈ 7.58 µM); against E. coli JT 425 it was 1 µg/mL (≈ 1.52 µM); in the experiment with E. coli NCTC 10418 it was 1 µg/mL (≈ 1.52 µM); in the experiment on Ps aeruginosa NCTC 10662 (Ps aeruginosa NCTC 10662 10^-2) it was over 100 µg/mL; with Ps aeruginosa NCTC 10662 (setting [1]), over 100 µg/mL. Besides, the MIC is 100 µg/mL (≈ 152 µM) with Ps aeruginosa Dalgleish; 5 µg/mL (≈ 7.58 µM) against S. marcescens US 32; 0.2 µg/mL (≈ 0.303 µM) in the experiment on K. aerogenes A; 25 µg/mL (≈ 37.9 µM) in the experiment on E. cloacae Nl; 5 µg/mL (≈ 7.58 µM) in the experiment on P. mirabilis C 977; 2.5 µg/mL (≈ 3.79 µM) against P. mirabilis 889. Further, the minimum inhibitory concentration (MIC) with P. morganii was determined as 10 µg/mL (≈ 15.2 µM); against P. rettgeri it was 25 µg/mL (≈ 37.9 µM).

In the case of `CCN1CCN(C(=O)N[C@@H](C(=O)N[C@]2(CO)C(=O)N3C(C(=O)O)=C(COC(C)=O)CS[C@@H]32)c2ccccc2)C(=O)C1=O` [Example 1d, Sodium 7β-[2(4-ethyl-2,3-dioxpiperazine-1-carbonylamino)]phenylacetamido-7α-hydroxymethylcephalosporanate], the minimal inhibitory concentration (MIC) is under 0.02 µg/mL in the experiment on E. coli ESS; 5 µg/mL against E. coli JT 4; 2.5 µg/mL in the experiment on E. coli JT 425; 2.5 µg/mL with E. coli NCTC 10418; over 100 µg/mL against Ps aeruginosa NCTC 10662 (Ps aeruginosa NCTC 10662 10^-2); over 100 µg/mL in the experiment with Ps aeruginosa NCTC 10662 (setting [1]). Further, the MIC against Ps aeruginosa Dalgleish is over 100 µg/mL; in the experiment with S. marcescens US 32, 5 µg/mL; in the experiment on K. aerogenes A it was 0.5 µg/mL; against E. cloacae Nl it was 10 µg/mL; in the experiment on P. mirabilis C 977 it was 2.5 µg/mL; in the experiment on P. mirabilis 889 it was 1 µg/mL. Besides, the MIC was 10 µg/mL with P. morganii; 10 µg/mL in the experiment on P. rettgeri; over 100 µg/mL against B. subtilis; over 100 µg/mL with S. aureus Oxford; over 100 µg/mL against S. aureus Russell; 0.2 µg/mL with N. catarrhalis 1502. Further, the minimum inhibitory concentration (MIC) was over 100 µg/mL in the experiment on S. faecalis I and 100 µg/mL in the experiment with S. pyogenes CN 10.

What is called MIC is the lowest concentration found to suppress growth.
